Measured values published in patent publication US4409232A, “Substituted oxadiazoles, method for the production thereof, compositions containing them and method of use thereof” (priority 1980, dated 1983).
Entries after “also recorded” stand apart in the source; their conditions may differ.

How the values were obtained:
beta-adrenolytic action = test: Half-life of the beta-adrenolytic action in rabbits after i.v. application; type: in vivo, rabbit; conditions: for t1/2 of beta-adrenolytic action: rabbits, i.v., time at which action has decreased to one half
Description: […] : Time at which the beta-adrenolytic action of a substance in rabbits after i.v. application has decreased to one half.

[1] = target: T1, beta-adrenoceptor (atrium) (Cavia porcellus, UniProt H0W3H1); test: pA2 as beta-adrenoceptor blocker on isolated guinea pig atrium; type: cell-based
T1 construct: As test tissue are used the atrium and trachea of guinea pigs; from tissue; host or cells: isolated guinea pig atrium
T1 sequence (H0W3H1 1-470): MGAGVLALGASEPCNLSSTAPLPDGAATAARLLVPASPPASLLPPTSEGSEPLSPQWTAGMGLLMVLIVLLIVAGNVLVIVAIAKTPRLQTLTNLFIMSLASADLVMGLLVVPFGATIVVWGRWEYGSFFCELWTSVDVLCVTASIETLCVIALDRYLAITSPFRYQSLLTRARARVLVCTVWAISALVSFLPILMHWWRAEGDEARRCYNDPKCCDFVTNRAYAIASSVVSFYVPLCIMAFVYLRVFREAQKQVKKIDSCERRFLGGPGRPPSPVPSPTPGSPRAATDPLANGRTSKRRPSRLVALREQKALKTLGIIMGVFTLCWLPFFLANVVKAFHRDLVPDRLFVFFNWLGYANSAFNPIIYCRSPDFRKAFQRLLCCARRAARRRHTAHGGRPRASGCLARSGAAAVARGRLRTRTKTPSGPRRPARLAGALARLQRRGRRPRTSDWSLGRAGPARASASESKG
Description: (§1) The terms used in Table 1 are defined as follows (from B. J. Clark: "Pharmacology of beta-adrenoceptor blocking agents" in "beta-Adrenoceptor blocking agents", P. R. Saxena and R. P. Forsyth edition. pA2 The strength of a beta-adrenoceptor blocker. Corresponds to the negative logarithm of the molar concentration of an antagonist which requires a doubling of the molar concentration of the agonist to achieve a given effect on isolated tissue. As test tissue are used the atrium and trachea of guinea pigs.

[2] = system: beta-agonistic action (heart frequency); test: Intrinsic sympathomimetic activity (ISA): increase of heart frequency in reserpinized rats relative to isoprenaline; type: in vivo, rat; conditions: for ISA % isoprenaline action: increase of heart frequency, reserpinized rats, isoprenaline maximum = 100%
Procedure: ISA: "Intrinsic sympathomimetic activity" (betaa -agonistic action). The percent increase of the heart frequency which is induced by a substance, referred to the maximum reaction of isoprenaline (100%). The measurements are carried out on reserpinolized rats which no longer show a sympathic tonus.

[3] = system: β1 receptors of the heart versus β2 receptors (atrium / trachea); test: Cardioselectivity: antilog pA2 (atrium)-pA2 (trachea); type: cell-based, guinea pig; conditions: for Cardioselectivity antilog pA2 (A)-pA2 (T): antilog of pA2 (atrium) - pA2 (trachea), guinea pig; for cardioselectivity (in words): qualitative statement
Description: Most commercial β-adrenolytics of similar structure influence both β1 and β2 receptors; that is, they inhibit the effect of the sympathetic nervous system on the heart as well as on the peripheral blood vessels or the bronchial muscles. Blocking of the β2 receptors leads to an increase in tonus of the smooth muscle with broncho spasms and increased resistance of the peripheral vessels. […] This is because β2 receptor-blocking substances are not to be administered in bronchial diseases (such as asthma) because of their broncho-constrictive action. However, treatment of […].
pA2 The strength of a beta-adrenoceptor blocker. Corresponds to the negative logarithm of the molar concentration of an antagonist which requires a doubling of the molar concentration of the agonist to achieve a given effect on isolated tissue. As test tissue are used the atrium and trachea of guinea pigs.
Cardioselectivity: antilog pA2 (atrium)-pA2 (trachea)

[4] = target: T2, beta-adrenoceptor (trachea) (Cavia porcellus, UniProt Q8K4Z4); test: pA2 as beta-adrenoceptor blocker on isolated guinea pig trachea; type: cell-based
T2 construct: As test tissue are used the atrium and trachea of guinea pigs; from tissue; host or cells: isolated guinea pig trachea
T2 sequence (Q8K4Z4 whole entry): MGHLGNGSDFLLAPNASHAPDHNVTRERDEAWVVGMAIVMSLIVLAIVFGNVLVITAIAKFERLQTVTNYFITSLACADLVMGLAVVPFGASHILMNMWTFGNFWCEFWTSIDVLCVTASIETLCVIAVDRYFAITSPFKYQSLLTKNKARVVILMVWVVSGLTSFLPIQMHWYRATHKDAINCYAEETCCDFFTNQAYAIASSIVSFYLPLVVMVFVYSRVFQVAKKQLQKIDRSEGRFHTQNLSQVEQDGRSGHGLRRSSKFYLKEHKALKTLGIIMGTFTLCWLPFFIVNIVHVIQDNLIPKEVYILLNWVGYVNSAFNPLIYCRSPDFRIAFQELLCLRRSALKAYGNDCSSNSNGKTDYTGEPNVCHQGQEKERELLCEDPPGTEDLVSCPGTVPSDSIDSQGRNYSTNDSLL
Description: as §1

SMILES	Local anesth. action (Local anesthetic action)	t1/2 of beta-adrenolytic action (beta-adrenolytic action) [h]	Kb [1] [nM]	ISA % isoprenaline action [2] [%]	Cardioselectivity antilog pA2 (A)-pA2 (T) [3]	cardioselectivity (in words) [3]	Kb [4] [nM]	agonistic / isoprenaline action (in words) ([2]; qualitative statement)	half-life (in words) (beta-adrenolytic action; qualitative statement)	cardioselectivity (in words) ([3]; listed as (c))
CC(=O)Nc1ccc(OCC(O)CNC(C)(C)C)c(-c2nnco2)c1 (centres unmarked) [Example 1, 2-[2-(2-hydroxy-3-tert.-butylamino-propoxy)-5-acetamido-phenyl]-1,3,4 oxadiazole]	0	5	209	0	17	preferred for their selectivity	4170			
CCCCCCCCC(=O)Nc1ccc(OCC(O)CNC(C)(C)C)c(-c2nnco2)c1 (centres unmarked) [Example 5, 2-[2-(2-hydroxy-3-tert.-butylamino-propoxy)-5-n-nonanoylaminophenyl]-1,3,4 oxadiazole]						preferred for their selectivity				
CC(C)(C)NCC(O)COc1ccccc1-c1nnco1 (centres unmarked) [Comparison Substance 2, 2-[2-(2-hydroxy-3-tert.butylamino-propoxy)-phenyl]-1,3,4-oxadiazole, reference compound]	0		50.1	79	3		158	high isoprenaline action		
CCCCCCCC(=O)Nc1ccc(OCC(O)CNC(C)(C)C)c(-c2nnco2)c1 (centres unmarked) [Example 4, 2-[2-(2-hydroxy-3-tert.-butylamino-propoxy)-5-n-octanoylaminophenyl]-1,3,4 oxadiazole]	0		39.8	0	32	preferred for their selectivity	1260			
CCCC(=O)Nc1ccc(OCC(O)CNC(C)C)c(C(C)=O)c1 (centres unmarked) [Comparison Substance 1, Acebutolol, reference compound]	present	1.6		27			9770			
CCCCCCCCCC(=O)Nc1ccc(OCC(O)CNC(C)(C)C)c(-c2nnco2)c1 (centres unmarked) [Example 6, 2-[2-(2-hydroxy-3-tert.-butylamino-propoxy)-5-n-decanoylamino-phenyl]-1,3,4oxadiazole]	0		79.4	0	20	preferred for their selectivity	1580			
CCCCCCC(=O)Nc1ccc(OCC(O)CNC(C)(C)C)c(-c2nnco2)c1 (centres unmarked) [Example 2, 2-[2-(2-hydroxy-3-tert.-butylamino-propoxy)-5-n-heptanoylaminophenyl]-1,3,4oxadiazole]	0	3.5	50.1	0	25		1260		particularly long half-life	preferred for their selectivity; also recorded: highly selectively active
